In PMC12670405, “Second-Generation AURKA-Targeting PROTACs: Structural Optimization toward in Vivo Degradation in Neuroblastoma” (Journal of Medicinal Chemistry, 2025):
Like-named read-outs stand apart in the source and are kept apart here.

How the values were obtained:
CRBN = molecular target: T1, CRBN (Homo sapiens, UniProt Q96SW2); assay: CRBN binding assay (E3scan, Eurofins Discovery)
T1 construct: purchased Eurofins Discovery
Experimental: (§1) AURKA, AURKB and CRBN binding assays were performed by Eurofins Discovery using the KdELECT Kinase Assay Panel (AURKA and AURKB), or the E3scan Ligand Binding Assay Technology (CRBN). More information can be found on the Eurofins Discovery Web site.
(§2) Graphs were generated using GraphPad Prism Software (version 10.1.2) or RStudio (R-4.3.2). All dose–response curves were computed on GraphPad Prism using the Variable Slope (four parameters) equation. Absolute half-maximal degradation (DC50), growth inhibitory (GI50) and enzymatic inhibitory (IC50) concentrations, as well as inhibition constants (Ki) were derived from dose–response curves via interpolation. Statistical tests were performed on GraphPad Prism and detailed in the figure legends. Unless otherwise stated, “n” in the figure legends indicates the number of independent experiments conducted at different times.

AURKA = molecular target: T2, AURKA (Homo sapiens, UniProt O14965); assay: AURKA binding assay (KINOMEscan / KdELECT, Eurofins Discovery); design: purchased Eurofins Discovery; settings: for binding selectivity for AURKA over AURKB: Ki AURKB vs Ki AURKA
T2 sequence (O14965 1-403): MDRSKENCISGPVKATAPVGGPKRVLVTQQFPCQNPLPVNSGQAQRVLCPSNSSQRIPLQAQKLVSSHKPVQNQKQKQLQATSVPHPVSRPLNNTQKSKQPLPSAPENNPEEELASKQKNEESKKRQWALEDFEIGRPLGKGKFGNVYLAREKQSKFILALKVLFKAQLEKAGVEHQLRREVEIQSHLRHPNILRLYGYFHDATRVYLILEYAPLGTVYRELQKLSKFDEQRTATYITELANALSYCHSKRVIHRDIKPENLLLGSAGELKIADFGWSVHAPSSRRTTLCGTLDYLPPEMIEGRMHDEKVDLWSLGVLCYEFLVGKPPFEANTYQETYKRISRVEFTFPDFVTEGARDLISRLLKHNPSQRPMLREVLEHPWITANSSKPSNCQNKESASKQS
Experimental: as §1, §2

AURKB = molecular target: T3, AURKB (Homo sapiens, UniProt Q96GD4); assay: AURKB binding assay (KINOMEscan / KdELECT, Eurofins Discovery)
T3 construct: purchased Eurofins Discovery
T3 sequence (Q96GD4 whole entry): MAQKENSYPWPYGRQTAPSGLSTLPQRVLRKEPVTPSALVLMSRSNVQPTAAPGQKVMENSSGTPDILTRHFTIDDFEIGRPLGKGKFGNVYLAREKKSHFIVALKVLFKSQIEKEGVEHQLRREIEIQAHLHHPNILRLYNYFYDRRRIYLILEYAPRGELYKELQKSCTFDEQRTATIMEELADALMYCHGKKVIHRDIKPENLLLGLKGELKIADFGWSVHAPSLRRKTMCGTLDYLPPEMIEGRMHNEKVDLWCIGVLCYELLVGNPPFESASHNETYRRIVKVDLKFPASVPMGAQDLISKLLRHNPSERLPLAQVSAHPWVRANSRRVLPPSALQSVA
Experimental: as §1, §2

SK-N-SH = assay: IncuCyte live-cell imaging, antiproliferative effect; type: cell-based; settings: Homo sapiens, 72 h, read-out: Cell GI50 72h
Summary of the method: (§3)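 Cells seeded in 384-well plates (neuroblastoma 1200–5000, HEK293T 600 cells/well), adhered overnight, then compound-treated in duplicate or triplicate; confluency tracked by IncuCyte live-cell imaging. Normalized confluence averaged from 3 experiments; absolute GI50 interpolated from four-parameter variable-slope curves.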

SK-N-AS = assay: as above; type: cell-based; settings: Homo sapiens, 72 h, read-out: Cell GI50 72h
Summary of the method: as §3

SJNB-8 = assay: as above; type: cell-based; settings: Homo sapiens, 72 h, read-out: Cell GI50 72h, SJNB-8
Summary of the method: as §3

SK-N-BE(2)-C = assay: as above; type: cell-based, human; settings: 72 h; for GI50: Homo sapiens, SK-N-BE(2)-C, read-out: Cell GI50 72h; for growth-inhibitory activity upon cotreatment with tariquidar (in words): NGP, SJNB-8 and SK-N-BE(2)-C, 1 μM tariquidar
Description: Human neuroblastoma cell lines NGP, IMR-32, SJNB-8, SK-N-BE(2)-C, SJNB-1, SK-N-SH and SK-N-AS, as well as benign immortalized cell lines RPE and HEK293T were either bought commercially or obtained through research laboratories. […] Screening for mycoplasma contamination occurred routinely on the cells. Human neuroblastoma cell lines SH-SY5Y_shABCB1 & SH-SY5Y_shNTC were generated by transduction with pLKO.1-ABCB1_TRCN0000059683 shRNA (Sigma MISSION SHCLND) or pLKO.1-puro NT shRNA (Sigma MISSION SHC002) vectors respectively (Supplementary Table S6), packaged using Lenti-X293T (Clontech). Transduced cells were selected with 2 μg/mL puromycin. These cells were cultured in DMEM 4.5 g/L D-Glucose, L-Glutamine and 110 mg/L Sodium Pyruvate (Gibco, #11995065) supplemented with 10% fetal bovine serum, 1× Antibiotic-Antimycotic solution (Sigma-Aldrich, #A5955) and 1× MEM nonessential amino acids (Sigma-Aldrich, #M7145). Incubation of all cells occurred at 37 °C and 5% CO2.
Neuroblastoma cells were seeded in 384-well plates at different densities ranging from 1200 to 5000 cells/well and allowed to adhere overnight. RPE and HEK293T were seeded at 200 and 600 cells/well, respectively. Compound treatment was performed using the D300e Digital Dispenser (Tecan) in duplicate or triplicate and cell confluency was monitored over time using the IncuCyte Live-cell imaging system (Sartorius). […] Mean normalized confluences were calculated from 3 individual experiments.
(§4) All dose–response curves were computed on GraphPad Prism using the Variable Slope (four parameters) equation. Absolute half-maximal degradation (DC50), growth inhibitory (GI50) and enzymatic inhibitory (IC50) concentrations, as well as inhibition constants (Ki) were derived from dose–response curves via interpolation. Statistical tests were performed on GraphPad Prism and detailed in the figure legends. Unless otherwise stated, “n” in the figure legends indicates the number of independent experiments conducted at different times.

RPE = assay: as above; type: cell-based
NanoLuc-AURKA [1] = molecular target: T4, NanoLuc-AURKA (Homo sapiens, UniProt O14965); assay: NanoBRET target engagement, permeabilized mode; type: binding; settings: permeabilized HEK293T; read-out: NanoBRET IC50, tracer displacement from NanoLuc-AURKA
T4 construct: Plasmids encoding full-length wild-type AURKA fused to Nano-Luc; host or cells: HEK293T
T4 sequence (O14965 1-403): T2 sequence (O14965 1-403)
Experimental: (§5) The NanoBRET Target Engagement Assay (Promega) was performed according to the recommended instructions from the manufacturer. Plasmids encoding full-length wild-type AURKA fused to Nano-Luc via AURKA’s C-terminus (Promega, #NV1041) were transfected into HEK293T cells using FuGENE HD (Promega, #E2312). […] The plate was mixed at 900 rpm for 15 s, using an orbital shaker. For the permeabilized-mode, digitonin (Sigma-Aldrich, #D141) was additionally added at a final concentration of 50 μg/mL. Test compounds were subsequently administered in duplicate using the D300e digital dispenser (Tecan), followed by incubation for 2 h (37 °C, 5% CO2). To measure BRET, nanoglo substrate and extracellular nanoluc inhibitor (only in live-mode) (Promega #N2540) were added, and luminescence was measured using the GloMax Discover Microplate Reader (Promega) with a luminescence filter pair of 450 nm (BP filter, donor) and 600 nm (LP filter, acceptor). The NanoBRET ratio was calculated using the following formula: BRET ratio = 1000*[(acceptor signal/donor signal)with tracer – (acceptor signal/donor signal)no tracer]. Relative BRET ratios (%) were generated by normalizing to the negative DMSO control. The experiment was performed once with 2 replicate samples.
as §4

NanoLuc-AURKA [2] = molecular target: T4, NanoLuc-AURKA; assay: NanoBRET target engagement, live (intact) cells; type: cell-based; settings: intact HEK293T
Experimental: as §5, §4

T1 sequence (Q96SW2 whole entry): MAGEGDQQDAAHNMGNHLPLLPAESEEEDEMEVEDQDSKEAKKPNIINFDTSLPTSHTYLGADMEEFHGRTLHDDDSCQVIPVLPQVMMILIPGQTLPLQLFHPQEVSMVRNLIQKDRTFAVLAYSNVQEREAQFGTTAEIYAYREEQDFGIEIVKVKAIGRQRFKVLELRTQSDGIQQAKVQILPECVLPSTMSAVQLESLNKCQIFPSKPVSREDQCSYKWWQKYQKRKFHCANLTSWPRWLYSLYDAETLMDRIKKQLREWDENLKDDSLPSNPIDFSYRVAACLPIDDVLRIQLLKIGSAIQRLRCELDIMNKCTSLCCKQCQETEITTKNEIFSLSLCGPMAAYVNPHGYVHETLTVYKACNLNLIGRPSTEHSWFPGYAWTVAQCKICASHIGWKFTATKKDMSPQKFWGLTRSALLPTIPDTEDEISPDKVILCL

Row | SMILES | Ki (CRBN) [nM] | Ki (AURKA) [nM] | binding selectivity for AURKA over AURKB (AURKA) | Ki (AURKB) [nM] | GI50 (SK-N-SH) [nM] | GI50 (SK-N-AS) [nM] | GI50 (SK-N-BE(2)-C) [nM] | GI50 (SJNB-8) [nM] | GI50 (RPE; 72 h, read-out: Cell GI50 72h) [nM] | IC50 (NanoLuc-AURKA [1]) [nM] | NanoLuc-AURKA engagement in intact cells (in words) (NanoLuc-AURKA [2]) | growth-inhibitory activity upon cotreatment with tariquidar (in words) (SK-N-BE(2)-C) | GI50 (RPE; 72h, read-out: GI50) [nM]
1 | O=C1CCC(Nc2ccc(N3CCN(C4CN(C(=O)[C@]5(Cc6cccc(Nc7nccs7)n6)CC[C@@H](Oc6cccc(Cl)c6F)CC5)C4)CC3)c(F)c2)C(=O)N1 (some centres unmarked) [PROTAC 18] | 1210 |  |  |  |  |  |  |  |  |  |  |  | 
2 | O=C1CCC(N2C(=O)c3cccc(OCCOCCOCCOCCNC(=O)[C@]4(Cc5cccc(Nc6nccs6)n5)CC[C@@H](Oc5cccc(Cl)c5F)CC4)c3C2=O)C(=O)N1 (some centres unmarked) [SK2188, reference compound] | 273 | 2 | more than 2000 fold | 5610 | 1580 | 3180 | 3730 | 173 |  |  |  |  | 
3 | Cc1cc(Nc2ccc(F)c(CC3(C(=O)N4CCC(F)(CN5CCN(c6ccc(N7CCC(=O)NC7=O)cn6)CC5)CC4)CCN(Cc4cccc(Cl)c4F)CC3)n2)n[nH]1 [SK5527] | 1130 | 2 | more than 2000 fold | > 10000 | 244 | 654 | 477 | < 100 | 460 | ~20 | able to bind NanoLuc-AURKA in intact cells | comparable to AURKA inhibitor TAS-119 | ~500

Second part, led by results:

Row | Ki (CRBN) [nM] | Ki (AURKA) [nM] | binding selectivity for AURKA over AURKB (AURKA) | Ki (AURKB) [nM] | GI50 (SK-N-SH) [nM] | GI50 (SK-N-AS) [nM] | GI50 (SK-N-BE(2)-C) [nM] | SMILES | GI50 (SJNB-8) [nM] | GI50 (RPE; 72 h, read-out: Cell GI50 72h) [nM] | IC50 (NanoLuc-AURKA [1]) [nM] | NanoLuc-AURKA engagement in intact cells (in words) (NanoLuc-AURKA [2]) | growth-inhibitory activity upon cotreatment with tariquidar (in words) (SK-N-BE(2)-C) | GI50 (RPE; 72h, read-out: GI50) [nM]
4 | 4300 | 1 | more than 2000 fold | 2390 |  |  |  | O=C1CCN(c2ccc(N3CCN(CC4CCN(C(=O)[C@]5(Cc6cccc(Nc7nccs7)n6)CC[C@@H](Oc6cccc(Cl)c6F)CC5)CC4)CC3)nc2)C(=O)N1 [PROTAC 24] |  |  |  |  |  | 
5 | 4060 | 1 | more than 2000 fold | 7640 | 430 | 994 | 1110 | Cc1cc(Nc2ccc(F)c(CC3(C(=O)N4CCC(CN5CCN(c6ccc(N7CCC(=O)NC7=O)cn6)CC5)CC4)CCN(Cc4cccc(Cl)c4F)CC3)n2)n[nH]1 [SK4454] | < 100 | 221 | ~20 | able to bind NanoLuc-AURKA in intact cells | comparable to AURKA inhibitor TAS-119 | 
